# pIC50: −log10 of the molar value.
# System: NCI-H196 SCLC complex tumor spheroid viability
# Experiment: Anticancer human tumor NCI-H196 cell line growth inhibition;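 note: spheroids exposed to compounds for 7 days before readout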;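 for viability, T/C: 100% = DMSO vehicle control wells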
# Conditions: for pIC50: curve of first compound; for viability, T/C: stronger effect = lower value
# Procedure, shortened: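 Complex spheroids of malignant cells with endothelial cells and mesenchymal stem cells; agents alone or combined, from near clinical Cmax (or 10 microM if unknown) down in half-log steps, 0.25% DMSO final.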
# [1] = second compound 30 pM, first compound 0.0316 µM
# [2] = second compound 30 pM, first compound 0.1 µM
# [3] = second compound 30 pM, first compound 0.316 µM
# [4] = second compound 30 pM, first compound 1 µM
# [5] = second compound 30 pM, first compound 3.16 µM
# [6] = second compound 30 pM, first compound 10 µM
# [7] = second compound 94.9 pM, first compound 0.0316 µM
# [8] = second compound 94.9 pM, first compound 0.1 µM
# [9] = second compound 94.9 pM, first compound 0.316 µM
# [10] = second compound 94.9 pM, first compound 1 µM
# [11] = second compound 94.9 pM, first compound 3.16 µM
# [12] = second compound 94.9 pM, first compound 10 µM
# [13] = second compound 0.0003 µM, first compound 0.0316 µM
# [14] = second compound 0.0003 µM, first compound 0.1 µM
# [15] = second compound 0.0003 µM, first compound 0.316 µM
# [16] = second compound 0.0003 µM, first compound 1 µM
# [17] = second compound 0.0003 µM, first compound 3.16 µM
# [18] = second compound 0.0003 µM, first compound 10 µM
# [19] = second compound 0.000949 µM, first compound 0.0316 µM
# [20] = second compound 0.000949 µM, first compound 0.1 µM
# [21] = second compound 0.000949 µM, first compound 0.316 µM
# [22] = second compound 0.000949 µM, first compound 1 µM
# [23] = second compound 0.000949 µM, first compound 3.16 µM
# [24] = second compound 0.000949 µM, first compound 10 µM
# [25] = second compound 0.003 µM, first compound 0.0316 µM
# [26] = second compound 0.003 µM, first compound 0.1 µM
# [27] = second compound 0.003 µM, first compound 0.316 µM
# [28] = second compound 0.003 µM, first compound 1 µM
# [29] = second compound 0.003 µM, first compound 3.16 µM
# [30] = second compound 0.003 µM, first compound 10 µM
# [31] = second compound 1 µM, first compound 0.0949 µM
# [32] = second compound 1 µM, first compound 0.3 µM
# [33] = second compound 1 µM, first compound 0.949 µM
# [34] = second compound 1 µM, first compound 3 µM
# [35] = second compound 3.16 µM, first compound 0.0949 µM
# [36] = second compound 3.16 µM, first compound 0.3 µM
# [37] = second compound 3.16 µM, first compound 0.949 µM
# [38] = second compound 3.16 µM, first compound 3 µM
# [39] = second compound 10 µM, first compound 0.0949 µM
# [40] = second compound 10 µM, first compound 0.3 µM
# [41] = second compound 10 µM, first compound 0.949 µM
# [42] = second compound 10 µM, first compound 3 µM
# [43] = second compound 31.6 µM, first compound 0.0949 µM
# [44] = second compound 31.6 µM, first compound 0.3 µM
# [45] = second compound 31.6 µM, first compound 0.949 µM
# [46] = second compound 31.6 µM, first compound 3 µM
# [47] = second compound 100 µM, first compound 0.0949 µM
# [48] = second compound 100 µM, first compound 0.3 µM
# [49] = second compound 100 µM, first compound 0.949 µM
# [50] = second compound 100 µM, first compound 3 µM
compound,measurement,setting,value
CC(C)n1c(=O)n(C)c2cnc3cc(F)c(-c4ccc(OCCCN5CCCCC5)nc4)cc3c21 + COc1cc2c(cc1O)CCNC21CSC2c3c(OC(C)=O)c(C)c4c(c3C(COC1=O)N1C(O)C3Cc5cc(C)c(OC)c(O)c5C(C21)N3C)OCO4,pIC50,second compound 30 pM,< 5.00
same,pIC50,second compound 94.9 pM,< 5.00
same,pIC50,second compound 0.0003 µM,< 5.00
same,pIC50,second compound 0.000949 µM,< 5.00
same,pIC50,second compound 0.003 µM,> 7.50
same,"viability, T/C",[1],104%
same,"viability, T/C",[2],106%
same,"viability, T/C",[3],106%
same,"viability, T/C",[4],104%
same,"viability, T/C",[5],114%
same,"viability, T/C",[6],107%
same,"viability, T/C",[7],106%
same,"viability, T/C",[8],107%
same,"viability, T/C",[9],105%
same,"viability, T/C",[10],107%
same,"viability, T/C",[11],123%
same,"viability, T/C",[12],112%
same,"viability, T/C",[13],103%
same,"viability, T/C",[14],112%
same,"viability, T/C",[15],111%
same,"viability, T/C",[16],112%
same,"viability, T/C",[17],116%
same,"viability, T/C",[18],104%
same,"viability, T/C",[19],93.8%
same,"viability, T/C",[20],97.7%
same,"viability, T/C",[21],92.6%
same,"viability, T/C",[22],93.7%
same,"viability, T/C",[23],106%
same,"viability, T/C",[24],95.2%
same,"viability, T/C",[25],7%
same,"viability, T/C",[26],6.41%
same,"viability, T/C",[27],9.42%
same,"viability, T/C",[28],3.31%
same,"viability, T/C",[29],2.99%
same,"viability, T/C",[30],3.29%
COc1ccc([C@@H](O)c2cc(-c3ncnc4cc(N5CCOCC5)ccc34)c(F)cc2Cl)nn1 + COc1cc2c(cc1O)CCNC21CSC2c3c(OC(C)=O)c(C)c4c(c3C(COC1=O)N1C(O)C3Cc5cc(C)c(OC)c(O)c5C(C21)N3C)OCO4,pIC50,second compound 30 pM,5.04
same,pIC50,second compound 94.9 pM,5.14
same,pIC50,second compound 0.0003 µM,5.53
same,pIC50,second compound 0.000949 µM,6.01
same,pIC50,second compound 0.003 µM,> 7.50
same,"viability, T/C",[1],103%
same,"viability, T/C",[2],94.9%
same,"viability, T/C",[3],93.8%
same,"viability, T/C",[4],77.8%
same,"viability, T/C",[5],62.6%
same,"viability, T/C",[6],49%
same,"viability, T/C",[7],106%
same,"viability, T/C",[8],107%
same,"viability, T/C",[9],93.6%
same,"viability, T/C",[10],75.4%
same,"viability, T/C",[11],60%
same,"viability, T/C",[12],46%
same,"viability, T/C",[13],99%
same,"viability, T/C",[14],96.7%
same,"viability, T/C",[15],91.1%
same,"viability, T/C",[16],69.5%
same,"viability, T/C",[17],50.2%
same,"viability, T/C",[18],32.5%
same,"viability, T/C",[19],81.8%
same,"viability, T/C",[20],80.6%
same,"viability, T/C",[21],78.1%
same,"viability, T/C",[22],45.3%
same,"viability, T/C",[23],26.6%
same,"viability, T/C",[24],9.62%
same,"viability, T/C",[25],8.41%
same,"viability, T/C",[26],3.38%
same,"viability, T/C",[27],3.43%
same,"viability, T/C",[28],0.71%
same,"viability, T/C",[29],0.82%
same,"viability, T/C",[30],0.59%
Cn1ncnc1[C@H]1c2n[nH]c(=O)c3cc(F)cc(c23)N[C@@H]1c1ccc(F)cc1 + Cn1nnc2c(C(N)=O)ncn2c1=O,pIC50,second compound 1 µM,< 5.52
same,pIC50,second compound 3.16 µM,< 5.52
same,pIC50,second compound 10 µM,< 5.52
same,pIC50,second compound 31.6 µM,< 5.52
same,pIC50,second compound 100 µM,< 5.52
same,"viability, T/C","second compound 1 µM, first compound 0.00949 µM",103%
same,"viability, T/C","second compound 1 µM, first compound 0.03 µM",92%
same,"viability, T/C",[31],99.5%
same,"viability, T/C",[32],95.5%
same,"viability, T/C",[33],86.6%
same,"viability, T/C",[34],94%
same,"viability, T/C","second compound 3.16 µM, first compound 0.00949 µM",105%
same,"viability, T/C","second compound 3.16 µM, first compound 0.03 µM",105%
same,"viability, T/C",[35],104%
same,"viability, T/C",[36],103%
same,"viability, T/C",[37],88.9%
same,"viability, T/C",[38],99.5%
same,"viability, T/C","second compound 10 µM, first compound 0.00949 µM",104%
same,"viability, T/C","second compound 10 µM, first compound 0.03 µM",100%
same,"viability, T/C",[39],104%
same,"viability, T/C",[40],90.9%
same,"viability, T/C",[41],110%
same,"viability, T/C",[42],89.2%
same,"viability, T/C","second compound 31.6 µM, first compound 0.00949 µM",104%
same,"viability, T/C","second compound 31.6 µM, first compound 0.03 µM",91.6%
same,"viability, T/C",[43],94.8%
same,"viability, T/C",[44],93.2%
same,"viability, T/C",[45],100%
same,"viability, T/C",[46],91.3%
same,"viability, T/C","second compound 100 µM, first compound 0.00949 µM",102%
same,"viability, T/C","second compound 100 µM, first compound 0.03 µM",94.5%
same,"viability, T/C",[47],94.5%
same,"viability, T/C",[48],94.8%
same,"viability, T/C",[49],99%
same,"viability, T/C",[50],89.5%
O=C(c1cc(Cc2n[nH]c(=O)c3ccccc23)ccc1F)N1CCN(C(=O)C2CC2)CC1 + Cn1nnc2c(C(N)=O)ncn2c1=O,pIC50,second compound 1 µM,< 4.52
same,pIC50,second compound 3.16 µM,< 4.52
same,pIC50,second compound 10 µM,< 4.52
same,pIC50,second compound 31.6 µM,< 4.52
same,pIC50,second compound 100 µM,< 4.52
same,"viability, T/C",[31],102%
same,"viability, T/C",[32],102%
same,"viability, T/C",[33],93.3%
same,"viability, T/C",[34],89.1%
same,"viability, T/C","second compound 1 µM, first compound 9.49 µM",86.1%
same,"viability, T/C","second compound 1 µM, first compound 30 µM",83.7%
same,"viability, T/C",[35],97.7%
same,"viability, T/C",[36],94.3%
same,"viability, T/C",[37],104%
same,"viability, T/C",[38],98.1%
same,"viability, T/C","second compound 3.16 µM, first compound 9.49 µM",85.5%
same,"viability, T/C","second compound 3.16 µM, first compound 30 µM",79.8%
same,"viability, T/C",[39],99.6%
same,"viability, T/C",[40],97.9%
same,"viability, T/C",[41],92.6%
same,"viability, T/C",[42],95.2%
same,"viability, T/C","second compound 10 µM, first compound 9.49 µM",92.4%
same,"viability, T/C","second compound 10 µM, first compound 30 µM",90.8%
same,"viability, T/C",[43],101%
same,"viability, T/C",[44],101%
same,"viability, T/C",[45],100%
same,"viability, T/C",[46],106%
same,"viability, T/C","second compound 31.6 µM, first compound 9.49 µM",98.7%
same,"viability, T/C","second compound 31.6 µM, first compound 30 µM",86.8%
same,"viability, T/C",[47],95.6%
same,"viability, T/C",[48],96.5%
same,"viability, T/C",[49],98.7%
same,"viability, T/C",[50],87.6%
same,"viability, T/C","second compound 100 µM, first compound 9.49 µM",86.7%
same,"viability, T/C","second compound 100 µM, first compound 30 µM",76.2%

# From PubChem BioAssay AID1845208 (Molecular Pharmacology Branch, DTP, NCI, 2023)
